Data published in ChEMBL document CHEMBL1148320, “Characterization of a ligand-receptor binding event using receptor-dependent four-dimensional quantitative structure-activity relationship analysis” (J Med Chem, 2004).

Biological target: glycogen phosphorylase b, muscle (Oryctolagus cuniculus) (UniProt P00489)
Sequence (P00489 whole entry, looked up): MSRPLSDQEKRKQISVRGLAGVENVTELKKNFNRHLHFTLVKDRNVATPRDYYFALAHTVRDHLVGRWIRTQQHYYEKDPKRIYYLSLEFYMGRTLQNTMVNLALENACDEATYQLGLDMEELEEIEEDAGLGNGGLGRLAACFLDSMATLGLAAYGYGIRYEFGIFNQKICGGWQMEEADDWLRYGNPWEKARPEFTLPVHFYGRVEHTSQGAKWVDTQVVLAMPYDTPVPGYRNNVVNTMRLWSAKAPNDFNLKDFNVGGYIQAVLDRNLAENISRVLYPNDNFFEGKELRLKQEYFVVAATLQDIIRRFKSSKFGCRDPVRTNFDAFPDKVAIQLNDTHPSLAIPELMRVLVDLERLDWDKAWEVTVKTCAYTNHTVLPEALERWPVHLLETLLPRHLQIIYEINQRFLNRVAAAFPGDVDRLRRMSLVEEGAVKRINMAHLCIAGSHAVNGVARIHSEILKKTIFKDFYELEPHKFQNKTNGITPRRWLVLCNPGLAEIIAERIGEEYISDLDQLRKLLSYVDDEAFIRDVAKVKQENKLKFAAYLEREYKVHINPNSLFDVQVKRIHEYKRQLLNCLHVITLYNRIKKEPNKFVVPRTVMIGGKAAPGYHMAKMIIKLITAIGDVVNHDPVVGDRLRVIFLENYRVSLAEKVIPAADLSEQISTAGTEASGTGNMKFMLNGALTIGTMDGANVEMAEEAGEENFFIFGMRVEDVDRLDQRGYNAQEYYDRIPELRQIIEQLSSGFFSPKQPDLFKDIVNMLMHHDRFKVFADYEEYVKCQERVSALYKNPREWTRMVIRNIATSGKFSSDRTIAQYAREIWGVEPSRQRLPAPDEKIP

Row | Ki [mM] | Structure (SMILES)
1 | 2 | OC[C@H]1S[C@H](O)[C@H](O)[C@@H](O)[C@@H]1O
2 | 15.8 | OC[C@H]1O[C@@](O)(CO)[C@H](O)[C@@H](O)[C@@H]1O
3 | 0.045 | O=C(CCl)NC1O[C@H](CO)[C@@H](O)[C@H](O)[C@H]1O (single isomer, unassigned)
4 | 21.1 | NC(=O)CSC1O[C@H](CO)[C@@H](O)[C@H](O)[C@H]1O (single isomer, unassigned)
5 | 18.9 | O=C(CSC1O[C@H](CO)[C@@H](O)[C@H](O)[C@H]1O)Nc1ccc(F)cc1F (single isomer, unassigned)
6 | 3.6 | O=C(CSC1O[C@H](CO)[C@@H](O)[C@H](O)[C@H]1O)Nc1ccccc1 (single isomer, unassigned)
7 | 1.8 | CNNC(=O)C1O[C@H](CO)[C@@H](O)[C@H](O)[C@H]1O (single isomer, unassigned)
8 | 0.14 | NC(=O)NC1O[C@H](CO)[C@@H](O)[C@H](O)[C@H]1O (single isomer, unassigned)
9 | 0.094 | CCCC(=O)NC1O[C@H](CO)[C@@H](O)[C@H](O)[C@H]1O (single isomer, unassigned)
10 | 0.99 | CC(=O)NCC(=O)NC1O[C@H](CO)[C@@H](O)[C@H](O)[C@H]1O (single isomer, unassigned)
11 | 0.039 | CCC(=O)NC1O[C@H](CO)[C@@H](O)[C@H](O)[C@H]1O (single isomer, unassigned)
